Measurements reported in ChEMBL document CHEMBL1122107, “Structure-antitumor activity relationships of 9-anilinoacridines using pattern recognition” (1982).
Where “and” joins values, the source holds several entries; their conditions need not be identical. Identical values can stand only once.

Tested on: L1210
Assay: Tumor cell selectivity determined as maximal percent increase in life span (ILSmax) at LD10 dosage level in L1210 cells
Format: functional, Mus musculus

Row | SMILES | ILSmax
1 | CCCCS(=O)(=O)Nc1ccc(Nc2c3ccccc3nc3cc([N+](=O)[O-])ccc23)cc1 | 110%
2 | NCCCCCCc1ccc(N=c2c3ccccc3[nH]c3ccccc23)cc1 | 25%
3 | O=C(O)COc1ccc(Nc2c3ccccc3nc3ccccc23)cc1 | 25%
4 | CCCNC(=O)c1ccc(Nc2c3ccccc3nc3ccccc23)cc1 | 25%
5 | Cc1cc(NS(C)(=O)=O)ccc1Nc1c2ccccc2nc2cc([N+](=O)[O-])ccc12 | 70%
6 | CC(C(N)=O)S(=O)(=O)Nc1ccc(Nc2c3ccccc3nc3ccccc23)cc1 (stereo not drawn) | 25%
7 | Cc1cc(C(=O)O)ccc1Nc1c2ccccc2nc2ccccc12 | 25%
8 | CCS(=O)(=O)Nc1ccc(Nc2c3ccccc3nc3cc(Cl)ccc23)c(OC)c1 | 95%
9 | NCC(=O)NCCS(=O)(=O)Nc1ccc(Nc2c3ccccc3nc3cc([N+](=O)[O-])ccc23)cc1 | 170%
10 | N=C(N)NCCCCS(=O)(=O)Nc1ccc(Nc2c3ccccc3nc3cc([N+](=O)[O-])ccc23)cc1 | 110%
11 | O=C(O)CCc1ccc(NC(=O)Nc2ccc(N=c3c4ccccc4[nH]c4ccccc34)cc2)cc1 | 125%
12 | CC(=O)Nc1ccc2c(Nc3ccc(NS(C)(=O)=O)cc3)c3ccc(Cl)cc3nc2c1 | 60%
13 | O=C(O)CCCCc1ccc(Nc2c3ccccc3nc3ccccc23)cc1 | 187%
14 | NCCC(=O)NCCS(=O)(=O)Nc1ccc(Nc2c3ccccc3nc3ccccc23)cc1 | 25%
15 | COc1cc(NS(C)(=O)=O)ccc1N=c1c2ccccc2[nH]c2ccc(C(N)=O)cc12 | 25%
16 | CCS(=O)(=O)Nc1ccc(Nc2c3ccccc3nc3c(C(N)=O)cccc23)c(OC)c1 | 166%
17 | O=C(O)CCCCCCCCCc1ccc(Nc2c3ccccc3nc3ccccc23)cc1 | 75%
18 | COc1cc(NS(C)(=O)=O)ccc1Nc1c2cccc(C)c2nc2c(C)c(N)ccc12 | 80%
19 | O=C(Nc1ccc(N=c2c3ccccc3[nH]c3ccccc23)cc1)Nc1ccc(C(=O)O)cc1 | 85%
20 | CC(=O)N(c1ccc(Nc2c3ccc([N+](=O)[O-])cc3nc3c(C)cccc23)cc1)S(C)(=O)=O | 150%
21 | COc1cc(NS(C)(=O)=O)ccc1Nc1c2ccc([N+](=O)[O-])cc2nc2c(C)cccc12 | 72% and 113%
22 | CS(=O)(=O)Nc1ccc(N=c2c3ccccc3[nH]c3cc([N+](=O)[O-])ccc23)cn1 | 72%
23 | Cc1cc(NS(C)(=O)=O)ccc1Nc1c2ccccc2nc2c(C(N)=O)cccc12 | 68%
24 | CCCC(=O)N(c1ccc(Nc2c3ccccc3nc3cc(NC(C)=O)ccc23)cc1)S(C)(=O)=O | 95%
25 | Nc1ccc2c(Nc3ccc(NC(=O)c4ccccc4)cc3)c3ccccc3nc2c1 | 115%

Row | SMILES | ILSmax
26 | COc1cc(N)ccc1Nc1c2ccccc2nc2ccccc12 | 25% and 66%
27 | O=C(Nc1ccc(Nc2c3ccccc3nc3ccccc23)cc1)OCC(O)CO (stereo not drawn) | 70%
28 | CCCCNC(=O)c1cccc2c(Nc3ccc(NS(=O)(=O)CCC)cc3OC)c3ccccc3nc12 | 71%
29 | CC(=O)Nc1ccc2c(Nc3ccc(NS(=O)(=O)CCCNC(=N)N)cc3)c3ccc([N+](=O)[O-])cc3nc2c1 | 160%
30 | NC(=O)N/N=C/c1ccc(Nc2c3ccccc3nc3ccccc23)cc1 | 72%
31 | O=S(=O)(Cc1ccc(Nc2c3ccccc3nc3ccccc23)cc1)Nc1ccccn1 | 98%
32 | CS(=O)(=O)N1CCN(c2ccc(Nc3c4ccccc4nc4ccccc34)cc2)CC1 | 70%
33 | COc1ccc2nc3cc(NC(C)=O)ccc3c(Nc3ccc(NS(C)(=O)=O)cc3)c2c1 | 25%
34 | COc1cc(NS(C)(=O)=O)ccc1Nc1c2ccccc2nc2cc(C(C)C)ccc12 | 40%
35 | Nc1ccc(S(=O)(=O)Nc2ccc(Nc3c4ccccc4nc4cc(Cl)ccc34)cc2)cc1 | 50%
36 | O=C(O)CCCCCCCc1ccc(Nc2c3ccccc3nc3ccccc23)cc1 | 75%
37 | CCCCCS(=O)(=O)Nc1ccc(Nc2c3ccccc3nc3c(C(=O)NCCCC)cccc23)c(OC)c1 | 45%
38 | O=C(O)c1ccc(Nc2c3ccccc3nc3ccccc23)cc1 | 90%
39 | CC(=O)Nc1ccc(S(=O)(=O)Nc2ccc(Nc3c4ccccc4nc4ccccc34)cc2)cc1 | 151%
40 | CCCCCCS(=O)(=O)Nc1ccc(Nc2c3ccccc3nc3cc(S(C)(=O)=O)ccc23)c(OC)c1 | 25%
41 | CNc1ccc2c(Nc3ccc(C(=O)O)cc3)c3ccccc3nc2c1 | 25%
42 | CCc1ccc2c(Nc3ccc(CC(=O)O)cc3)c3ccccc3nc2c1 | 200%
43 | NCCCS(=O)(=O)c1ccc(Nc2c3ccccc3nc3cc([N+](=O)[O-])ccc23)cc1 | 95%
44 | Cc1cc(NS(C)(=O)=O)ccc1Nc1c2ccccc2nc2c(N)cccc12 | 120%
45 | COc1cc(NS(C)(=O)=O)ccc1Nc1c2ccccc2nc2c(CCC(N)=O)cccc12 | 105%
46 | CCOc1cccc2c(Nc3ccc(NS(C)(=O)=O)cc3)c3ccccc3nc12 | 85%
47 | CS(=O)(=O)Nc1ccc(Nc2c3ccccc3nc3cc([N+](=O)[O-])ccc23)cc1 | 69%
48 | CCCCCCC(=O)N(c1ccc(Nc2c3ccccc3nc3cc(NC(C)=O)ccc23)cc1)S(C)(=O)=O | 100%
49 | CN(C)Cc1ccc(Nc2c3ccccc3nc3ccccc23)cc1 | 25%
50 | O=[N+]([O-])c1ccccc1Nc1c2ccccc2nc2ccccc12 | 25%

Row | SMILES | ILSmax
51 | CCCNc1ccc(Nc2c3ccccc3nc3ccccc23)cc1 | 25%
52 | COc1cc(NS(C)(=O)=O)ccc1Nc1c2ccccc2nc2cc(I)ccc12 | 74%
53 | CCOc1ccccc1Nc1c2ccccc2nc2ccccc12 | 25%
54 | CS(=O)(=O)Nc1ccccc1Nc1c2ccccc2nc2ccccc12 | 25%
55 | CCN(CC)c1ccc(Nc2c3ccccc3nc3ccccc23)cc1 | 25%
56 | CCCCS(=O)(=O)Nc1ccc(Nc2c3ccccc3nc3c(OC)cccc23)c(OC)c1 | 63%
57 | Cc1cccc2c(Nc3ccc(NS(C)(=O)=O)cc3)c3ccc(N)cc3nc12 | 110%
58 | Cc1cccc2c(Nc3ccc(NS(C)(=O)=O)cc3)c3ccc([N+](=O)[O-])cc3nc12 | 120% and 130%
59 | Cc1cc(N)ccc1N=c1c2ccccc2[nH]c2ccccc12 | 76%
60 | COc1cc(NS(C)(=O)=O)ccc1Nc1c2ccccc2nc2cc(Br)c(N)cc12 | 99%
61 | CCCCCCS(=O)(=O)Nc1ccc(Nc2c3ccccc3nc3cc(NC(C)=O)ccc23)cc1 | 42%
62 | O=C(O)CCCCCc1ccc(NC(=O)Nc2ccc(Nc3c4ccccc4nc4ccccc34)cc2)cc1 | 60%
63 | COc1ccc2c(Nc3ccc(NS(C)(=O)=O)cc3)c3ccc(N)cc3nc2c1 | 105%
64 | COc1cc(NS(C)(=O)=O)ccc1N=c1c2ccccc2[nH]c2ccc(C(C)(C)C)cc12 | 25%
65 | COc1ccc2c(Nc3ccc(NS(C)(=O)=O)cc3OC)c3ccc(Cl)cc3nc2c1 | 50%
66 | COc1cc(NS(C)(=O)=O)ccc1Nc1c2ccccc2nc2c(OCCO)cccc12 | 105%
67 | CCCCCS(=O)(=O)Nc1ccc(Nc2c3ccccc3nc3cc([N+](=O)[O-])ccc23)c(OC)c1 | 72%
68 | Cc1c([N+](=O)[O-])ccc2c(Nc3ccc(NS(C)(=O)=O)cc3)c3ccccc3nc12 | 70%
69 | Cc1cccc2c(Nc3ccc(NS(=O)(=O)CCCCN)cc3)c3cccc(C)c3nc12 | 72%
70 | CC(=O)Nc1ccc2c(Nc3ccc(NS(C)(=O)=O)cc3)c3ccc([N+](=O)[O-])cc3nc2c1 | 141%
71 | N=C(N)NCCS(=O)(=O)Nc1ccc(Nc2c3ccc(N)cc3nc3ccc(N)cc23)cc1 | 85%
72 | CC(C)CC(=O)Nc1ccc(Nc2c3ccccc3nc3ccccc23)cc1 | 105%
73 | CCCS(=O)(=O)Nc1ccc(Nc2c3ccccc3nc3cc(NC(C)=O)ccc23)cc1 | 115%
74 | O=C(Cc1ccccc1)Nc1ccc(Nc2c3ccccc3nc3ccccc23)cc1 | 25%
75 | Cc1cc(NS(C)(=O)=O)ccc1Nc1c2ccc([N+](=O)[O-])cc2nc2c(C)c(C)ccc12 | 60%

Row | SMILES | ILSmax
76 | CNc1ccc2c(Nc3ccc(NS(C)(=O)=O)cc3)c3cccc(C)c3nc2c1 | 170%
77 | Nc1ccc(CCS(=O)(=O)Nc2ccc(Nc3c4ccccc4nc4ccccc34)cc2)cc1 | 25%
78 | CS(=O)(=O)Nc1ccc(Nc2c3ccccc3nc3cc(NC(=O)c4ccccc4)ccc23)cc1 | 25%
79 | CCCC(=O)N(c1ccc(Nc2c3ccccc3nc3c(C)cccc23)cc1)S(C)(=O)=O | 75%
80 | CNc1ccc2c(Nc3ccc(NS(C)(=O)=O)cc3)c3cccc(C)c3nc2c1C | 70%
81 | CS(=O)(=O)c1ccc(S(=O)(=O)Nc2ccc(Nc3c4ccccc4nc4ccccc34)cc2)cc1 | 128%
82 | Cc1cccc2c(Nc3ccc(NS(C)(=O)=O)cc3)c3cc(N)c(Br)cc3nc12 | 120%
83 | CCCCCC(=O)Nc1ccc(Nc2c3ccccc3nc3ccccc23)cc1 | 110%
84 | COc1cc(NS(C)(=O)=O)ccc1Nc1c2ccc(C)cc2nc2cc([N+](=O)[O-])ccc12 | 92%
85 | COc1ccc2c(Nc3ccc(NS(C)(=O)=O)cc3)c3ccc([N+](=O)[O-])cc3nc2c1 | 60%
86 | CC(=O)Nc1ccccc1Nc1c2ccccc2nc2ccccc12 | 25%
87 | CN(c1ccc(N=c2c3ccccc3[nH]c3cc(N)ccc23)cc1)S(C)(=O)=O | 100%
88 | Oc1cccc(Nc2c3ccccc3nc3ccccc23)c1 | 25%
89 | Nc1ccc(S(=O)(=O)Nc2ccc(Nc3c4ccccc4nc4ccccc34)cc2)cc1 | 100%
90 | NS(=O)(=O)c1ccccc1Nc1c2ccccc2nc2ccccc12 | 25%
91 | CN(c1ccc(Nc2c3ccccc3nc3ccccc23)cc1)S(C)(=O)=O | 65%
92 | COc1ccc(Nc2c3ccccc3nc3ccccc23)cc1 | 25%
93 | CCc1ccccc1Nc1c2ccccc2nc2ccccc12 | 25%
94 | COc1cc(NS(C)(=O)=O)ccc1Nc1c2ccccc2nc2c(C(=O)NCCO)cccc12 | 100%
95 | COc1ccc2c(Nc3ccc(NS(C)(=O)=O)cc3)c3ccccc3nc2c1 | 107%
96 | CS(=O)(=O)Nc1ccc(Nc2c3ccccc3nc3ccc(N)cc23)cc1 | 50%
97 | CC(=O)Nc1ccc2c(Nc3ccc(NS(C)(=O)=O)cc3)c3ccccc3nc2c1 | 60%
98 | COc1cc(NS(C)(=O)=O)ccc1Nc1c2ccccc2nc2c(OC)cccc12 | 110%
